Measured values reported in the NIST ThermoML archive (doi:10.1021/je800193a).

Assay: excess molar enthalpy (molar enthalpy of mixing); xn = mol fraction of the nth substance listed
Settings: 101.3 kPa, Liquid, Flow calorimetry

CC(=O)c1ccccc1 [acetophenone] + CCCCCO
excess molar enthalpy [kcal/mol]
Settings | 298.2 K | 313.2 K | 328.2 K | 338.2 K | 348.2 K
x1 = 0.1003 | 0.151 | 0.174 | 0.186 | 0.19 | 0.192
x1 = 0.1998 | 0.24 | 0.283 | 0.311 | 0.324 | 0.328
x1 = 0.2998 | 0.298 | 0.356 | 0.394 | 0.412 | 0.417
x1 = 0.3497 | 0.316 | 0.378 | 0.421 | 0.44 | 0.447
x1 = 0.4001 | 0.33 | 0.396 | 0.441 | 0.461 | 0.468
x1 = 0.4496 | 0.338 | 0.407 | 0.453 | 0.473 | 0.48
x1 = 0.4994 | 0.343 | 0.411 | 0.457 | 0.477 | 0.484
x1 = 0.5497 | 0.342 | 0.41 | 0.453 | 0.473 | 0.478
x1 = 0.6004 | 0.336 | 0.402 | 0.442 | 0.459 | 0.464
x1 = 0.6501 | 0.325 | 0.386 | 0.422 | 0.438 | 0.441
x1 = 0.7003 | 0.307 | 0.363 | 0.393 | 0.408 | 0.41
x1 = 0.8004 | 0.252 | 0.291 | 0.306 | 0.315 | 0.318
x1 = 0.8995 | 0.156 | 0.174 | 0.177 | 0.182 | 0.184

CC(=O)c1ccccc1 [acetophenone] + CCCCO
excess molar enthalpy [kcal/mol]
Settings | 298.2 K | 313.2 K | 328.2 K | 338.2 K | 348.2 K
x1 = 0.0996 | 0.149 | 0.172 | 0.187 | 0.193 | 0.197
x1 = 0.2005 | 0.241 | 0.283 | 0.314 | 0.326 | 0.335
x1 = 0.3001 | 0.298 | 0.357 | 0.394 | 0.412 | 0.423
x1 = 0.3501 | 0.317 | 0.379 | 0.422 | 0.44 | 0.452
x1 = 0.4002 | 0.331 | 0.396 | 0.441 | 0.46 | 0.472
x1 = 0.4504 | 0.34 | 0.406 | 0.452 | 0.471 | 0.483
x1 = 0.5005 | 0.344 | 0.41 | 0.456 | 0.473 | 0.485
x1 = 0.5506 | 0.343 | 0.407 | 0.452 | 0.469 | 0.479
x1 = 0.6006 | 0.337 | 0.399 | 0.44 | 0.455 | 0.463
x1 = 0.6504 | 0.326 | 0.382 | 0.419 | 0.432 | 0.44
x1 = 0.7001 | 0.309 | 0.358 | 0.391 | 0.4 | 0.407
x1 = 0.8 | 0.252 | 0.285 | 0.305 | 0.311 | 0.316
x1 = 0.9001 | 0.154 | 0.17 | 0.176 | 0.18 | 0.184

CC(=O)c1ccccc1 [acetophenone] + CCOC(C)=O
excess molar enthalpy [kcal/mol]
Settings | 298.2 K | 313.2 K | 328.2 K
x1 = 0.1 | -0.00292 | -0.00284 | -0.0028
x1 = 0.2004 | -0.00509 | -0.00495 | -0.0049
x1 = 0.2999 | -0.0066 | -0.00636 | -0.00626
x1 = 0.3501 | -0.00707 | -0.00679 | -0.00674
x1 = 0.4002 | -0.00739 | -0.00703 | -0.00693
x1 = 0.4503 | -0.00755 | -0.00715 | -0.00698
x1 = 0.5002 | -0.00755 | -0.0071 | -0.00688
x1 = 0.5997 | -0.00717 | -0.00667 | -0.00638
x1 = 0.7005 | -0.00629 | -0.00574 | -0.0054
x1 = 0.8004 | -0.00483 | -0.0043 | -0.00392
x1 = 0.9003 | -0.00246 | -0.00234 | -0.00196

CC(=O)c1ccccc1 [acetophenone] + O
excess molar enthalpy [kcal/mol]
Settings | 298.2 K | 313.2 K | 328.2 K | 338.2 K | 348.2 K
x1 = 0.1002 | 0.0169 | 0.0217 | 0.0313 | 0.0342 | 0.0399
x1 = 0.1997 | 0.033 | 0.0424 | 0.0592 | 0.0608 | 0.0772
x1 = 0.3001 | 0.0492 | 0.0636 | 0.0876 | 0.095 | 0.115
x1 = 0.3991 | 0.0652 | 0.0846 | 0.116 | 0.124 | 0.153
x1 = 0.5003 | 0.0816 | 0.106 | 0.145 | 0.156 | 0.192
x1 = 0.5991 | 0.0975 | 0.127 | 0.173 | 0.188 | 0.23
x1 = 0.6986 | 0.113 | 0.148 | 0.201 | 0.221 | 0.269
x1 = 0.7987 | 0.129 | 0.168 | 0.229 | 0.253 | 0.308
x1 = 0.8515 | 0.138 | 0.175 | 0.24 | 0.245 | 0.274
x1 = 0.8967 | 0.141 | 0.16 | 0.189 | 0.192 | 0.204
x1 = 0.9534 | 0.0718 | 0.0793 | 0.0926 | 0.0937 | 0.1
